Experimental findings from patent publication US5151414A, “Phenoxyethyl amine compounds active on the cardiovascular system” (SIMES Societa Italiana Medicinali e Sintetici S.p.A., priority 1987, dated 1992) are described below.

Test [1] concerns the target α1 receptor (rat cerebral cortex). Description: α1 receptor binding on rat cerebral cortex. An excerpt: (§1) The α1 -antagonistic activity has been evaluated as receptor binding on rat cerebral cortex and as antagonism to contraction induced by phenylephrine (α1 -agonist) on rabbit aorta.
The target in test [2] is dopaminergic receptor (isolated membranes of rat striated muscle). As to the kind of experiment: receptor binding test, dopaminergic "in vitro" receptor affinity on isolated membranes of rat striated muscle. An excerpt:
(§2) Furthermore, the compounds of formula I show a remarkable dopaminergic activity in addition to an α1 -antagonistic effect. The dopaminergic activity has been evaluated by receptor binding tests as "in vitro" receptor affinity on isolated membranes of rat striated muscle and by pharmacological tests as "in vitro" inhibition of the answer to electric stimulation of cat right atrium.

The test system of test [3] is dopaminergic activity, cat right atrium. As to the kind of experiment: "in vitro" inhibition of the answer to electric stimulation of cat right atrium (dopaminergic activity). The class given is biochemical.
From the text: as §2

The nature of test [4]: effects on systemic arterial pressure, heart rate and vascular resistances in anesthetized dog, intravenous route. The class given is in vivo. The protocol: In fact, the compounds object of the present invention reduce meaningfully systemic arterial pressure after administration by intravenous route in anesthetized dog (see example 11). The compound N-[2-(2,6-dichlorophenoxy)-ethyl]-N-propyl-2-amino-5,6-dihydroxy-1,2,3,4-tetrahydronaphthalene hydrochloride (Compound A) was tested by intravenous route in anesthetized dog in order to evaluate the effects on systemic arterial pressure. Compound A, administered by intravenous route at the doses of 10 and 20 μg/kg, reduced systemic arterial pressure as well as peripheral resistances and particularly femoral resistances, the last reduction being associated also with an increase of the corresponding haematic flow.

The test system of a further test is α1 (rabbit aorta). Description: antagonism to contraction induced by phenylephrine (α1-agonist) on rabbit aorta. The class given is biochemical.
From the text: as §1

SMILES strings stand for the structures.

As usually defined, the IC50 is the midpoint of a concentration-inhibition curve. Regarding `CCCN(CCOc1c(Cl)cccc1Cl)C1CCc2c(ccc(O)c2O)C1.Cl` (stereo not drawn) [Compound A, N-[2-(2,6-dichlorophenoxy)-ethyl]-N-propyl-2-amino-5,6-dihydroxy-1,2,3,4-tetrahydronaphthalene hydrochloride], the half-inhibitory concentration (IC50) in test [1] amounted to 76 nM; in test [2] it was 251 nM; in test [3], 8500 nM. Also, the Renal resistances is listed as 0.871 ± 0.162 mmHg/ml/min in test [4] (10 μg/kg iv, basal 1.007 + 0.186) and 1.082 ± 0.367 mmHg/ml/min in test [4] (20 μg/kg iv, basal 1.246 + 0.389). The Femoral resistances in test [4] (10 μg/kg iv, basal 2.471 + 0.260) was found to be 1.802 ± 0.471 mmHg/ml/min; in test [4] (20 μg/kg iv, basal 2.445 + 0.787), 1.274 ± 0.171 mmHg/ml/min. In addition, the a. femoral flow in test [4] (10 μg/kg iv, basal 54.1 + 3.8) is 67.4 ± 12.4 mL/min; in test [4] (20 μg/kg iv, basal 65.6 + 20.0), 87.8 ± 20.0 mL/min. For the same compound, the “Arterial pressure Mn” value in test [4] (10 μg/kg iv, basal 118 + 5) was 102 ± 8 mmHg; in test [4] (20 μg/kg iv, basal 118 + 9) it was 96 ± 11 mmHg. The “Arterial pressure Md” value turned out to be 119 ± 7 mmHg in test [4] (10 μg/kg iv, basal 136 + 4) and 109 ± 9 mmHg in test [4] (20 μg/kg iv, basal 132 + 8). Besides, the a. renal flow in test [4] (10 μg/kg iv, basal 143.7 + 23.7) amounted to 144.7 ± 20.6 mL/min; in test [4] (20 μg/kg iv, basal 129.9 + 31.8), 128.9 ± 31.3 mL/min. Besides, the Heart rate is listed as 161 ± 12 beats/min in test [4] (10 μg/kg iv, basal 152 + 11) and 146 ± 17 beats/min in test [4] (20 μg/kg iv, basal 136 + 13). Also, the “Arterial pressure Mx” value in test [4] (10 μg/kg iv, basal 160 + 10) worked out at 145 ± 8 mmHg; in test [4] (20 μg/kg iv, basal 148 + 8), 124 ± 9 mmHg. In test [4] (intravenous, 10 and 20 μg/kg), the “femoral resistances (in words)” value is given as “reduced”. Also, the “haematic flow, femoral (in words)” value in test [4] (intravenous, 10 and 20 μg/kg) is listed as “increase”. Moreover, in test [4] (intravenous, 10 and 20 μg/kg), the “peripheral resistances (in words)” value is “reduced”. Moreover, in test [4] (intravenous, 10 and 20 μg/kg), the “systemic arterial pressure (in words)” value is recorded as “reduced”. For the same compound, the “pA2 (rabbit aorta)” value in the test on α1 (rabbit aorta) stood at 7.42.
